# Reference: US9956187B2 (priority 2014, dated 2018)
# Structures can show the parent of a compound that is named as a salt.
# Legend:
# M5 = target: T1, M5 (Homo sapiens, UniProt P08912); experiment: Primary radioligand binding screen
# T1 construct: expressed in transfected cells
# Experimental: (§1) Evidence for interaction was based on the inhibition of the reference ligand-binding signal. […] Briefly, 50 μL aliquots of radioactive ligand (5 nM) were added to wells of a 96-well plate, which contained 25 μL of the reference or test ligands. We employed transfected cell lines expressing mainly human (unless otherwise specified) recombinant receptors, monoamine transporters, or ion channels for crude membrane preparation. Detailed information about our membrane preparation is well known in the art and can be obtained from publicly available protocol online. Crude membrane fractions containing the receptors were resuspended in standard binding buffer and 50 μL aliquots added to each well. The reactions were incubated at room temperature for 1.5 hours to allow for radioligand binding equilibration. Bound radioactivity was harvested by rapid filtration through a 0.3% polyethyleneimine-treated, 96-well filter mats using a 96-well Filtermate harvester. The dried filters were treated with melted scintillant and a Microbeta scintillation counter was utilized to measure the radioactivity retained on the filter.
# 5-HT1E = target: T2, 5-HT1E (Homo sapiens, UniProt P28566); experiment: Primary radioligand binding screen
# T2 construct: expressed in transfected cells
# Experimental: as §1
# 5-HT1A = target: T3, 5-HT1A (Homo sapiens, UniProt P08908); experiment: Primary radioligand binding screen
# T3 construct: expressed in transfected cells
# Experimental: as §1
# 5-HT6 = target: T4, 5-HT6 (Homo sapiens, UniProt P50406); experiment: Primary radioligand binding screen
# T4 construct: expressed in transfected cells
# Experimental: as §1
# DOR = target: T5, DOR (Homo sapiens, UniProt P41143); experiment: Primary radioligand binding screen
# T5 construct: expressed in transfected cells
# Experimental: as §1
# Alpha1D = target: T6, Alpha1D (Homo sapiens, UniProt P25100); experiment: Primary radioligand binding screen
# T6 construct: expressed in transfected cells
# Experimental: as §1
# Alpha1B = target: T7, Alpha1B (Homo sapiens, UniProt P35368); experiment: Primary radioligand binding screen
# T7 construct: expressed in transfected cells
# Experimental: as §1
# 5-HT2B = target: T8, 5-HT2B (Homo sapiens, UniProt P41595); experiment: Primary radioligand binding screen
# T8 construct: expressed in transfected cells
# Experimental: as §1
# [1] = tested on: chronic constriction injury (CCI) rats; experiment: Thermal hyperalgesia, paw withdrawal latency in CCI model; assay type: in vivo, rat; settings: 3 mg/kg IP daily, days 1-10 after CCI, vs NS group, P<0.05
# Experimental: CCI procedures on the sciatic nerve of male SD rats were performed as previously described. Briefly, after rats were anesthetized by i.p. injection of sodium pentobarbital (40 mg/kg), the right sciatic nerve of the mid-thigh level was exposed. Chromic gut 4-0 was loosely tied around the nerve for 4 ligatures with about 1 mm between knots. The ligation was performed to just barely reduce the diameter of sciatic nerve. […] In the sham group, the sciatic nerve was exposed without ligation. The incisions of rats were closed in layers. After recovery from anesthesia, rats were housed individually in the clear plastic cages with soft bedding covered with 3-6 cm of sawdust.
# Same volume of normal saline (2 ml) was injected in the other two groups at the same time.
# The paw withdrawal latency (PWL) to radiant heat was used to evaluate thermal hyperalgesia for nociceptive response as previously described. Rats were placed in transparent plexiglass cage (23×18×13 cm) with a piece of 3-mm-thick glass floor and received heat radiation after acclimating to the environments for 30 minutes. […] A digital timer automatically measured the duration between the starting of heat and the paw withdrawal, which was considered as the PWL. The PWL was measured in 0.1 second and a maximum of 20 seconds exposure to radiation was set to avoid injury. […]
# KOR = target: T9, KOR (Homo sapiens, UniProt P41145); experiment: biochemical; assay type: binding
# T9 construct: expressed in transfected cells
# Experimental: as §1
# H1 = target: T10, H1 (Homo sapiens, UniProt P35367); experiment: biochemical; assay type: binding
# T10 construct: expressed in transfected cells
# Experimental: as §1
# MOR = target: T11, MOR (Homo sapiens, UniProt P35372); experiment: biochemical; assay type: binding
# T11 construct: expressed in transfected cells
# Experimental: as §1
# [2] = Solubility in 20% cyclodextrin by HPLC; assay type: physicochemical; settings: aqueous with cosolvent or surfactant or cyclodextrin, thermodynamic from solid, room temperature
# Source text: It was filtered with 0.2 μm PTFE syringe filter after stirring for 24 hrs.
# human cloned NET = target: T12, human cloned NET (Homo sapiens, UniProt P23975); experiment: Norepinephrine reuptake assay in HEK 293 cells; assay type: cell-based; settings: mean±SE
# T12 construct: expressed in transfected cells
# Experimental: (§2) In brief, Human Embryonic Kidney 293 cells were plated in Poly-L-Lys (PLL) coated 384-well black clear bottom cell culture plates in DMEM+1% dFBS, at a density of 15,000 cells per well in a total volume of 40 μl. The cells were incubated for a minimum of 6 hours before use in the assays. The medium was removed and 20 μL of assay buffer (20 mM HEPES, 1×HBSS, pH 7.40) was added, followed by 5 μL of 5× drug solutions. The plate was incubated at 37° C. for 30 min. After the incubation, 25 μL of dye solution was added and fluorescence intensity was measured after […] at 37° C., using FlexStation II (bottom read mode, Excitation at 440 nm, Emission at 520 nm with 510 nm cut-off) from the Molecular Devices. […] The half maximal inhibitory concentration were determined and expressed as pIC50 (pIC50=−log (IC50)).
# [3] = Solubilizing dezocine in formulations
# Source text: All further solutions were created at about pH 4. […] No higher concentrations were attempted with this formulation.
# Sigma 1 [4] = target: T13, Sigma 1 (Homo sapiens, UniProt Q99720); experiment: Molecular target profiling; assay type: binding
# morphine dependent rats [5] = experiment: Astrocyte activation in nucleus accumbens; assay type: in vivo, rat
# morphine dependent rats [6] = experiment: Morphine withdrawal syndrome scoring
# Experimental: (1) The same volumes of normal saline (NS) were received subcutaneously in the naïve group. All other interventional drugs are administered by intraperitoneal injection.
# human cloned SERT = target: T14, human cloned SERT (Homo sapiens, UniProt P31645); experiment: Serotonin reuptake assay in HEK 293 cells; assay type: cell-based; settings: mean±SE
# T14 construct: expressed in transfected cells
# Experimental: as §2
# [7] = hydrobromide salt; cited from earlier work
# Sigma 1 [8] = target: T13, Sigma 1; experiment: Primary radioligand binding screen; parameters: expressed in transfected cells
# Experimental: as §1
# T11 sequence (P35372 whole entry): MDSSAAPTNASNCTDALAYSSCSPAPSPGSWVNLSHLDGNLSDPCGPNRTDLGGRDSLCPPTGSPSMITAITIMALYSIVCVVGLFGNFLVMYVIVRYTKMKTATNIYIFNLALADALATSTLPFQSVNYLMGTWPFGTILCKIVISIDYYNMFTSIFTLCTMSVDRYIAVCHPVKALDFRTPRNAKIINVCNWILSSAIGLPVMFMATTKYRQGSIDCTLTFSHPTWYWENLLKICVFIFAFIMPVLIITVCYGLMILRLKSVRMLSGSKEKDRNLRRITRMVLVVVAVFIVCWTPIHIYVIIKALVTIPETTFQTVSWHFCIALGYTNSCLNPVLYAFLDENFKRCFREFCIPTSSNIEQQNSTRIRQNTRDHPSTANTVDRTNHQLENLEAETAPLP
# T2 sequence (P28566 whole entry): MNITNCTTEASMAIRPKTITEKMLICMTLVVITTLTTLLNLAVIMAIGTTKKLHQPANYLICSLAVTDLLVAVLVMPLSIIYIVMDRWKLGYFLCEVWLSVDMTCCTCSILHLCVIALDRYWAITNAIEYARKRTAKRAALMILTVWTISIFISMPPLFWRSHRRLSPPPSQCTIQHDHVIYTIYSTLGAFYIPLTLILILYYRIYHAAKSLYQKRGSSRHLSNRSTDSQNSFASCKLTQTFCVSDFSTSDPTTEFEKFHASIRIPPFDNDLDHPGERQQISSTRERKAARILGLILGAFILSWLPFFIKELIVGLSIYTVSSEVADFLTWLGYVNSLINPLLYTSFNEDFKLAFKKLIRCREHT
# T4 sequence (P50406 whole entry): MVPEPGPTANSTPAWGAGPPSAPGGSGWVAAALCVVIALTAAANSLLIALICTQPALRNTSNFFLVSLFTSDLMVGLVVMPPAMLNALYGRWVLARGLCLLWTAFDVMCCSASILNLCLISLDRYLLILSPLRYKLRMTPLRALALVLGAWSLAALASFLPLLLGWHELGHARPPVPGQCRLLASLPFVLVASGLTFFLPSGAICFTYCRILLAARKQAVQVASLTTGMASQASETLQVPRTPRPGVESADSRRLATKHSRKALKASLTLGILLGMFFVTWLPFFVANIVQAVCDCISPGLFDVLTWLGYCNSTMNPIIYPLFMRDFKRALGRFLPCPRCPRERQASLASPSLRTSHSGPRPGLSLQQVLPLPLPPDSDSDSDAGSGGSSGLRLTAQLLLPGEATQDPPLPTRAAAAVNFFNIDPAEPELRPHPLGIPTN
# T8 sequence (P41595 whole entry): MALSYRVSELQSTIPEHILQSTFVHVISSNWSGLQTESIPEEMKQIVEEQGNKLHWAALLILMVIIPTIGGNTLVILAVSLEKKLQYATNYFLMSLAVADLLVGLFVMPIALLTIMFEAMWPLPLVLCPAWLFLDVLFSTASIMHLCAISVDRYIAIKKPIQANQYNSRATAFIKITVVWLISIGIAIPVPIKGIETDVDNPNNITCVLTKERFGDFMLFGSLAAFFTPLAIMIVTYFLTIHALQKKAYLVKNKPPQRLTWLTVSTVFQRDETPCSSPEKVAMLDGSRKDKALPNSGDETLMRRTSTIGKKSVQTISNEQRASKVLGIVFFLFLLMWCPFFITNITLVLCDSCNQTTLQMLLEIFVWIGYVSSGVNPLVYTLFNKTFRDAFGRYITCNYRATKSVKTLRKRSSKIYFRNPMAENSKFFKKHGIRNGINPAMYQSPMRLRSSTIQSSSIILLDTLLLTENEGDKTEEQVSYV
# T3 sequence (P08908 whole entry): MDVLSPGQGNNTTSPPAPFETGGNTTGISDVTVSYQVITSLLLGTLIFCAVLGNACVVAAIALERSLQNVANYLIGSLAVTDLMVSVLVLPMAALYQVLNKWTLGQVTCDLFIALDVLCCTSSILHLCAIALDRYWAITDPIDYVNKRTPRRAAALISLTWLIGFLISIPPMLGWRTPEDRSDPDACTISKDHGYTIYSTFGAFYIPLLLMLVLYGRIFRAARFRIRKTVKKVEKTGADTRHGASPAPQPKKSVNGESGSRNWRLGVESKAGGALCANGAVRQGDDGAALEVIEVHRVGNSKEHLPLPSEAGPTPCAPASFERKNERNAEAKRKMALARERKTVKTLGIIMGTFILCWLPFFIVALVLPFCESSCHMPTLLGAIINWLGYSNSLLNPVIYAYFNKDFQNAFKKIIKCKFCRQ
# T6 sequence (P25100 whole entry): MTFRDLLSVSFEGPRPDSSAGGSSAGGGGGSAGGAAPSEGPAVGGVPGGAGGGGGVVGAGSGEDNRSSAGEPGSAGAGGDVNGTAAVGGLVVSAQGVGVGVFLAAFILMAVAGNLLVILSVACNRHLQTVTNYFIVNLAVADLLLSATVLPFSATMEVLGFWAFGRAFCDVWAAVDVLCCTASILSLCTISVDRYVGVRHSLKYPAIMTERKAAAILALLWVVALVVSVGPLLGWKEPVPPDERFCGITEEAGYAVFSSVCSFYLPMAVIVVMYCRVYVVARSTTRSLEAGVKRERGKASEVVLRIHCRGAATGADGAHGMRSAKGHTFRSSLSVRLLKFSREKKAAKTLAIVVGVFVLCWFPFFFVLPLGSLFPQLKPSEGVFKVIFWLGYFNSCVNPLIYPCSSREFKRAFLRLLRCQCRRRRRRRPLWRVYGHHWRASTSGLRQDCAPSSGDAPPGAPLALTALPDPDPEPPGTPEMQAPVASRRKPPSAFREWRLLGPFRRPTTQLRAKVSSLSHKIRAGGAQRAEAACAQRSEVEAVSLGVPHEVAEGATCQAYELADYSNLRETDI
# T14 sequence (P31645 whole entry): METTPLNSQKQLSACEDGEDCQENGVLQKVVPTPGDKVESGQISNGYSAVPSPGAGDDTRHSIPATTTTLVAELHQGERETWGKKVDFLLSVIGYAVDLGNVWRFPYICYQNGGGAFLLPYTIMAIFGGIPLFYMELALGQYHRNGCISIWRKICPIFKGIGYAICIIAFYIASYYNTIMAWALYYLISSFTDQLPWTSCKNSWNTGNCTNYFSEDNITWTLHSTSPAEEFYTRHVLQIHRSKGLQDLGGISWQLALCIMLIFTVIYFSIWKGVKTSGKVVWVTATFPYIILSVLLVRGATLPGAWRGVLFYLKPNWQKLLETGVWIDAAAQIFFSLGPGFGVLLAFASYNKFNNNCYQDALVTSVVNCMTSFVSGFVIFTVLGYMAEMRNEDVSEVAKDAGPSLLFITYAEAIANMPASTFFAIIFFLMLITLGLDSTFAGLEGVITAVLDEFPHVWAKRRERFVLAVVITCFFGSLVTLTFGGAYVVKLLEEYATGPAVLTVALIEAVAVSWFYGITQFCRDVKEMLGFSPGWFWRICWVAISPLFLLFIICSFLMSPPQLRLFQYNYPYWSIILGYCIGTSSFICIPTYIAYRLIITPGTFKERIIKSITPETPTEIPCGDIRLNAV
# T12 sequence (P23975 whole entry): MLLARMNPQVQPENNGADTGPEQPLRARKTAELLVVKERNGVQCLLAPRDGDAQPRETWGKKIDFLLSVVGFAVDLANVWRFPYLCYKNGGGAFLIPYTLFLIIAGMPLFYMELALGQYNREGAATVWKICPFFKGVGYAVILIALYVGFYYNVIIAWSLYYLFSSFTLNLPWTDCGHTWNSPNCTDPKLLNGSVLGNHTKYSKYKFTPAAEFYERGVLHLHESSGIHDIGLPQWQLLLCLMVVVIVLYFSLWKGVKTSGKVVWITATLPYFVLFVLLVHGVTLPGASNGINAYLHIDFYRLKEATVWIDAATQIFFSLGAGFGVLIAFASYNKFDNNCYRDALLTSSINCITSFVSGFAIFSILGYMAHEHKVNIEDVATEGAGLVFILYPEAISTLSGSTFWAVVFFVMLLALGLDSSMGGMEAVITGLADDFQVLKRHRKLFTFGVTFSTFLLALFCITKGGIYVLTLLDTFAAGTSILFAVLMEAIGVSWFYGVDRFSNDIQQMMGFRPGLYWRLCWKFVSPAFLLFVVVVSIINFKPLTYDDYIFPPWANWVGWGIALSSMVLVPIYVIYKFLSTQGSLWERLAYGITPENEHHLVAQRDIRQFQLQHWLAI
# T7 sequence (P35368 whole entry): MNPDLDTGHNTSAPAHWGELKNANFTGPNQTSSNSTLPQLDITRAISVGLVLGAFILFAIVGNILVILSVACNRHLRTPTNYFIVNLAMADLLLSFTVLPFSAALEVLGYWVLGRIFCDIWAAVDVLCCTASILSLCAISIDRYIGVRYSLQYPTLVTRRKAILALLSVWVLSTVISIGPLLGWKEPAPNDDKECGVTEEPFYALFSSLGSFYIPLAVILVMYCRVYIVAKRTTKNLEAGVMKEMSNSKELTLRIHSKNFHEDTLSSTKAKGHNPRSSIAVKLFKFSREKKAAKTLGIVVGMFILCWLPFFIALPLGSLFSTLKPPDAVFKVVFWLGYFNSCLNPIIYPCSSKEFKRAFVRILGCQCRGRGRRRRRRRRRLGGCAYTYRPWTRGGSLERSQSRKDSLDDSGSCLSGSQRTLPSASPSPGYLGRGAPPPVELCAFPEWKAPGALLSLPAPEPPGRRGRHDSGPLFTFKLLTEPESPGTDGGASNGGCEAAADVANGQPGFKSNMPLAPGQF
# T10 sequence (P35367 whole entry): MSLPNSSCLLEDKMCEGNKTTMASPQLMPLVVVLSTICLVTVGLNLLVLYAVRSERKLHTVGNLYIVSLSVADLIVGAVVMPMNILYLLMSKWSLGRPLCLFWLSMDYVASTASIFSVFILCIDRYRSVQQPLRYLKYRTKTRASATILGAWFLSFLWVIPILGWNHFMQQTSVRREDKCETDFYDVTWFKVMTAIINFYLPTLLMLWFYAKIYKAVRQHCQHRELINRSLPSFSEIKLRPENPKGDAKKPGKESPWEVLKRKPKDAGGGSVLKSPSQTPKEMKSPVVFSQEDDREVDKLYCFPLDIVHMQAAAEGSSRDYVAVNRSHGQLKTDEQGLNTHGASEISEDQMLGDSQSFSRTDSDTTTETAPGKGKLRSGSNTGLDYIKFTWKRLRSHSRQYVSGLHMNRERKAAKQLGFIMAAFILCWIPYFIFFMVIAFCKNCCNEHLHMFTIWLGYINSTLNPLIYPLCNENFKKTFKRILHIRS
compound,measurement,setting,value
"C[C@@]12CCCCC[C@@H](Cc3ccc(O)cc31)[C@@H]2N [Dezocine, (−)-13β-amino-5,6,7,8,9,10,11,12-octahydro-5α-methyl-5,11-methanobenxocyclodecen-31-ol, hydrobromide]",inhibition at 10 µM,M5,19.4%
same,inhibition at 10 µM,5-HT1E,-2.4%
same,inhibition at 10 µM,5-HT1A,43.5%
same,inhibition at 10 µM,5-HT6,10.9%
same,inhibition at 10 µM,DOR,58.5%
same,inhibition at 10 µM,Alpha1D,8.9%
same,inhibition at 10 µM,Alpha1B,14.7%
same,inhibition at 10 µM,5-HT2B,-11.9%
same,paw withdrawal latency (PWL),[1],significantly improved
same,inhibition at 10 µM,KOR,91.3%
same,inhibition at 10 µM,H1,20.7%
same,inhibition at 10 µM,MOR,89.6%
same,solubility at 24 h,[2]; 20% 2-Hydroxypropyl-β-cyclodextrin (HPBCD),18 ± 1 mg/mL
same,solubility at 24 h,[2]; 20% 2-Hydroxypropyl-γ-cyclodextrin (HPGCD),24 ± 1 mg/mL
same,pIC50 at NET (norepinephrine reuptake),human cloned NET,5.68±0.11
same,Maximum Dezocine Concentration,"[3]; 31% Propylene Glycol, 1% Lactic Acid, highest concentration attempted",30 mg/mL
same,solubility,"[3]; 31% propylene glycol, 6% PVOH solution, pH 4, aqueous with cosolvent or surfactant or cyclodextrin",10 mg/mL
same,Maximum Dezocine Concentration,[3]; 50% Propylene Glycol,2 mg/mL
same,Maximum Dezocine Concentration,"[3]; Ethanol (200-proof), highest concentration attempted",1 mg/mL
same,Maximum Dezocine Concentration,[3]; Propylene Glycol (pure),10 mg/mL
same,Maximum Dezocine Concentration,[3]; Water,insoluble
same,solubility,[3]; water,< 1 mg/mL
same,interaction with sigma 1 receptor,Sigma 1 [4],interact with sigma 1 receptor
same,astrocyte activation in nucleus accumbens,morphine dependent rats [5],significantly inhibited
same,total score of morphine withdrawal symptoms,"morphine dependent rats [6]; days 1-7, vs DMSO group, n=12, P<0.01 (FIG. 18)",alleviated the morphine withdrawal syndrome
same,total score of morphine withdrawal symptoms,"morphine dependent rats [6]; dezocine 5 mg/kg IP, days 1-7, vs NS group, P<0.01",decreased significantly
same,pIC50 of SERT (serotonin reuptake),human cloned SERT,5.86±0.17
same,solubility of the salt,[7],20 mg/mL
same,inhibition at 10 µM,Sigma 1 [8],21.7%
